In the assay the target is T1, human GPR119 (hGPR119) (Homo sapiens, UniProt Q8TDV5).
T1 construct: expressed in transfected cells
T1 sequence (Q8TDV5 1-335): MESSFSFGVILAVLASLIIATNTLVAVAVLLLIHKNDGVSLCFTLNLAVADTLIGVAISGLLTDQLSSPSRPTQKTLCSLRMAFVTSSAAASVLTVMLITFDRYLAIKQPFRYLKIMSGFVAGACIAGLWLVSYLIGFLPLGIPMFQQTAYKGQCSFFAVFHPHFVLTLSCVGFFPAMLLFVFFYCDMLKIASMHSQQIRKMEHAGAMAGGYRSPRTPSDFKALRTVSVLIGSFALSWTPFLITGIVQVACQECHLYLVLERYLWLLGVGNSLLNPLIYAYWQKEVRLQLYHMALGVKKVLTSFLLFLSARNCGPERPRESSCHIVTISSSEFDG
Put plainly: cAMP accumulation assay (Cisbio cAMP Gs dynamic HTRF kit) in CHO-K1 cells stably expressing human GPR119. Format: cell-based. As to conditions: 4-parameter fit; for Emax: 1 h, % activity normalized to Max and Min controls; for EC50: 60 minutes at 37° C. How it is done: CHO-K1 cells stably expressing human GPR119 (hGPR119) were prepared by transfection of a GPR119-carrying plasmid using Lipofectamine 2000 (following manufacturer instructions). A stable cell line was established using the limiting dilution method with geneticine selection. Assay-ready frozen (ARF) cells were prepared and used throughout the study.
The assay was performed in a 384-well plate format using the cAMP Gs dynamic assay kit from Cisbio. ARF cells expressing hGPR119 were thawed, washed and then resuspended in cAMP stimulation buffer at a cell density of 1.1×10^6 cells/mL. Cells were plated at a density of ˜10,000 cells/well (9 μL/well). Dose response curves for the tested compounds were prepared in a cAMP stimulation buffer, containing 0.1% Tween 80 at 4 fold the final concentration. The compounds were then transferred to the cell plates using BRAVO (3 μL/well) and the plates were incubated for 60 minutes at 37° C./5% CO2. Detection buffer (10 μL, prepared as described in the cAMP Gs dynamic kit) were added to each well, and the plates were incubated at ambient temperature for 1 hr.
RT-FRET was measured using a ClarioSTAR plate reader, calculating the ratio between emissions at 665 nm and 620 nm (HTRF ratio). The HTRF ratio for positive (Max) and negative (Min) controls were used to normalize HTRF data and generate values for % activity. EC50 and Max activity values were determined using a standard 4-parameter fit.

By Emax is commonly meant the maximal effect, on the per cent scale that the assay sets. One may read the EC50 as the concentration needed to bring the measured effect to its halfway point. As for `O=C(Cc1ccc(OCCCC2CCN(c3ncc(Cl)cn3)CC2)cc1F)N1CCC2(CCCN2C[C@H](O)[C@@H](O)[C@H](O)[C@H](O)CO)C1` (stereo in doubt) [Example 75, 2-(4-(3-(1-(5-chloropyrimidin-2-yl)piperidin-4-yl)propoxy)-2-fluorophenyl)-1-(1-((2S,3R,4R,5R)-2,3,4,5,6-pentahydroxyhexyl)-1,7-diazaspiro[4.4]nonan-7-yl)ethan-1-one], the Emax is not below 130% and the EC50 was not above 100 nM.
As for `O=C(Cc1ccc(OCCCC2CCN(c3ncc(Cl)cn3)CC2)cc1F)N1CCC2(CCCC2NC[C@H](O)[C@@H](O)[C@H](O)[C@H](O)CO)C1` (stereo in doubt) [Example 77, 2-(4-(3-(1-(5-chloropyrimidin-2-yl)piperidin-4-yl)propoxy)-2-fluorophenyl)-1-(6-(((2S,3R,4R,5R)-2,3,4,5,6-pentahydroxyhexyl)amino)-2-azaspiro[4.4]nonan-2-yl)ethan-1-one], the Emax was not below 130% and the EC50 was not above 100 nM.
In turn, `O=C(Cc1ccc(OCCCC2CCN(c3ncc(Cl)cn3)CC2)cc1F)N1CC2(CCC2NC[C@H](O)[C@@H](O)[C@H](O)[C@H](O)CO)C1` (stereo in doubt) [Example 79, 2-(4-(3-(1-(5-chloropyrimidin-2-yl)piperidin-4-yl)propoxy)-2-fluorophenyl)-1-(5-(((2S,3R,4R,5R)-2,3,4,5,6-pentahydroxyhexyl)amino)-2-azaspiro[3.3]heptan-2-yl)ethan-1-one] gave an Emax not below 130% and an EC50 not above 100 nM.
The like results for `O=C(Cc1ccc(OCCCC2CCN(c3ncc(Cl)cn3)CC2)cc1F)N1CC[C@]2(CCC2NCC(O)C(O)C(O)CO)C1` (stereo in doubt) [Example 84, 2-(4-(3-(1-(5-chloropyrimidin-2-yl)piperidin-4-yl)propoxy)-2-fluorophenyl)-1-(1-(((2S,3S,4R)-2,3,4,5-tetrahydroxypentyl)amino)-6-azaspiro[3.4]octan-6-yl)ethan-1-one] were, in that order, not below 130% and not above 100 nM.
The like results for `O=C(CCCCS(=O)(=O)O)N1CCC2(CCN(C(=O)Cc3ccc(OCCCC4CCN(c5ncc(Cl)cn5)CC4)cc3F)C2)C1` (centres unmarked) [Example 1, 5-(7-(2-(4-(3-(1-(5-chloropyrimidin-2-yl)piperidin-4-yl)propoxy)-2-fluorophenyl)acetyl)-2,7-diazaspiro[4.4]nonan-2-yl)-5-oxopentane-1-sulfonic acid] were, in that order, 100 to 130% and not above 100 nM.
Turning to `O=C(Cc1ccc(OCCCC2CCN(c3ncc(Cl)cn3)CC2)cc1F)N1CCC2(C1)CN(C(=O)CCCCS(=O)(=O)O)C2` [Example 2, 5-(6-(2-(4-(3-(1-(5-chloropyrimidin-2-yl)piperidin-4-yl)propoxy)-2-fluorophenyl)acetyl)-2,6-diazaspiro[3.4]octan-2-yl)-5-oxopentane-1-sulfonic acid], the Emax is not below 130% and the EC50 was not above 100 nM.
Take `O=C(CCCCS(=O)(=O)O)N1CC2(C1)CN(C(=O)Cc1ccc(OCCCC3CCN(c4ncc(Cl)cn4)CC3)cc1F)C2` [Example 3, 5-(6-(2-(4-(3-(1-(5-chloropyrimidin-2-yl)piperidin-4-yl)propoxy)-2-fluorophenyl)acetyl)-2,6-diazaspiro[3.3]heptan-2-yl)-5-oxopentane-1-sulfonic acid]: the Emax lay in the range of 100 to 130% and the EC50 was not above 100 nM.
Compound `O=C(Cc1ccc(OCCCC2CCN(c3ncc(Cl)cn3)CC2)cc1F)N1CCC2(CCN2C(=O)CCCCS(=O)(=O)O)C1` (centres unmarked) [Example 4, 5-(6-(2-(4-(3-(1-(5-chloropyrimidin-2-yl)piperidin-4-yl)propoxy)-2-fluorophenyl)acetyl)-1,6-diazaspiro[3.4]octan-1-yl)-5-oxopentane-1-sulfonic acid] registered an Emax of 100 to 130% and an EC50 not above 100 nM.
For `O=C(Cc1ccc(OCCCC2CCN(c3ncc(Cl)cn3)CC2)cc1F)N1CC2(CCN2C(=O)CCCCS(=O)(=O)O)C1` [Example 5, 5-(6-(2-(4-(3-(1-(5-chloropyrimidin-2-yl)piperidin-4-yl)propoxy)-2-fluorophenyl)acetyl)-1,6-diazaspiro[3.3]heptan-1-yl)-5-oxopentane-1-sulfonic acid], the Emax was in the range of 100 to 130% and the EC50 was not above 100 nM.
Compound `O=C(Cc1ccc(OCCCC2CCN(c3ncc(Cl)cn3)CC2)cc1F)N1C[C@@H]2CCN(C(=O)CCCCS(=O)(=O)O)[C@@H]2C1` [Example 6, 5-((3aS,6aS)-5-(2-(4-(3-(1-(5-chloropyrimidin-2-yl)piperidin-4-yl)propoxy)-2-fluorophenyl)acetyl)hexahydropyrrolo[3,4-b]pyrrol-1(2H)-yl)-5-oxopentane-1-sulfonic acid] gave an Emax not below 130% and an EC50 not above 100 nM.
`O=C(Cc1ccc(OCCCC2CCN(c3ncc(Cl)cn3)CC2)cc1F)N1C[C@H]2CN(C(=O)CCCCS(=O)(=O)O)[C@H]2C1` [Example 7, 5-((1S,5R)-3-(2-(4-(3-(1-(5-chloropyrimidin-2-yl)piperidin-4-yl)propoxy)-2-fluorophenyl)acetyl)-3,6-diazabicyclo[3.2.0]heptan-6-yl)-5-oxopentane-1-sulfonic acid] displayed an Emax of 100 to 130% and an EC50 of 100 to 1000 nM.
For the compound `O=C(CCCCS(=O)(=O)O)N1C[C@H]2CN(C(=O)Cc3ccc(OCCCC4CCN(c5ncc(Cl)cn5)CC4)cc3F)[C@H]2C1` [Example 8, 5-((1S,5R)-6-(2-(4-(3-(1-(5-chloropyrimidin-2-yl)piperidin-4-yl)propoxy)-2-fluorophenyl)acetyl)-3,6-diazabicyclo[3.2.0]heptan-3-yl)-5-oxopentane-1-sulfonic acid], the Emax is 100 to 130% and the EC50 is not above 100 nM.
Regarding `O=C(CCCCS(=O)(=O)O)N1CC2(CCN2C(=O)Cc2ccc(OCCCC3CCN(c4ncc(Cl)cn4)CC3)cc2F)C1` [Example 9, 5-(1-(2-(4-(3-(1-(5-chloropyrimidin-2-yl)piperidin-4-yl)propoxy)-2-fluorophenyl)acetyl)-1,6-diazaspiro[3.3]heptan-6-yl)-5-oxopentane-1-sulfonic acid], the Emax lay within 100 to 130% and the EC50 is more than 10000 nM.
The compound `O=C(CCCCS(=O)(=O)O)N1C[C@@H]2CN(C(=O)Cc3ccc(OCCCC4CCN(c5ncc(Cl)cn5)CC4)cc3F)C[C@@H]2C1` [Example 10, 5-((3aR,6aS)-5-(2-(4-(3-(1-(5-chloropyrimidin-2-yl)piperidin-4-yl)propoxy)-2-fluorophenyl)acetyl)hexahydropyrrolo[3,4-c]pyrrol-2(1H)-yl)-5-oxopentane-1-sulfonic acid] gave an Emax of 100 to 130% and an EC50 not above 100 nM.
The matching figures for `O=C(CCCCS(=O)(=O)O)N1C[C@H]2C[C@@H]1CN2C(=O)Cc1ccc(OCCCC2CCN(c3ncc(Cl)cn3)CC2)cc1F` [Example 11, 5-((1R,4R)-5-(2-(4-(3-(1-(5-chloropyrimidin-2-yl)piperidin-4-yl)propoxy)-2-fluorophenyl)acetyl)-2,5-diazabicyclo[2.2.1]heptan-2-yl)-5-oxopentane-1-sulfonic acid]: 100 to 130% and not above 100 nM.
With `O=C(Cc1ccc(OCCCC2CCN(c3ncc(Cl)cn3)CC2)cc1F)N1CC2CC(C1)N2C(=O)CCCCS(=O)(=O)O` [Example 12, 5-(3-(2-(4-(3-(1-(5-chloropyrimidin-2-yl)piperidin-4-yl)propoxy)-2-fluorophenyl)acetyl)-3,6-diazabicyclo[3.1.1]heptan-6-yl)-5-oxopentane-1-sulfonic acid], the Emax lay within 100 to 130% and the EC50 is not above 100 nM.
`O=C(CCCCS(=O)(=O)O)N1CCCN(C(=O)Cc2ccc(OCCCC3CCN(c4ncc(Cl)cn4)CC3)cc2F)CC1` [Example 13, 5-(4-(2-(4-(3-(1-(5-chloropyrimidin-2-yl)piperidin-4-yl)propoxy)-2-fluorophenyl)acetyl)-1,4-diazepan-1-yl)-5-oxopentane-1-sulfonic acid] displayed an Emax of 100 to 130% and an EC50 of 100 to 1000 nM.
`O=C(CCCCS(=O)(=O)O)N1CC2CCC1CN2C(=O)Cc1ccc(OCCCC2CCN(c3ncc(Cl)cn3)CC2)cc1F` (centres unmarked) [Example 14, 5-(5-(2-(4-(3-(1-(5-chloropyrimidin-2-yl)piperidin-4-yl)propoxy)-2-fluorophenyl)acetyl)-2,5-diazabicyclo[2.2.2]octan-2-yl)-5-oxopentane-1-sulfonic acid]: the maximal response (Emax) is 100 to 130% and the EC50 was not above 100 nM.
The like results for `O=C(CCCCS(=O)(=O)O)N1C[C@@H]2C[C@H]1CN2C(=O)Cc1ccc(OCCCC2CCN(c3ncc(Cl)cn3)CC2)cc1F` [Example 15, 5-((1S,4S)-5-(2-(4-(3-(1-(5-chloropyrimidin-2-yl)piperidin-4-yl)propoxy)-2-fluorophenyl)acetyl)-2,5-diazabicyclo[2.2.1]heptan-2-yl)-5-oxopentane-1-sulfonic acid] were, in that order, 100 to 130% and not above 100 nM.

These data come from US20240217983A1, “GPR119 AGONISTS” (Kallyope, Inc., priority 2021, published 2024).
